Results from PMC7663263 (Molecules, 2020).

What was measured:
[1] = test system: O. ochengi adult female; experiment: Onchocerca ochengi adult female worm assay (MTT/formazan); format: cell-based; conditions: 10 μM; females assessed by MTT/formazan assay
Procedure: (§1) Onchocerca ochengi adult worm assays: For O. ochengi worm assays, subcutaneous nodules containing adult O. ochengi worms were removed from the hides of infected cows collected at abattoirs in Douala, Cameroon. Masses were incubated in 4 mL of complete culture medium (RPMI-1640, 5% newborn calf serum, 200 units/mL penicillin, 200 μg/mL streptomycin and 2.5 μg/mL amphotericin B) in standard 12-well culture plates and maintained in a 37 °C, 5% CO2 incubator overnight during which time the adult males migrated out of the masses while the females remained in the nodules. Compound and control wells (worms in 1% DMSO) were tested in quadruplicate and experiments were repeated twice on different days. Cultures were terminated on day 7. […] Adult female worm viability was assessed on day 7 by the standard MTT/formazan assay in which each nodular mass was placed in a well of a 48-well plate containing 500 μL of 0.5 mg/mL MTT (Sigma-Aldrich) in culture medium. Viability was evaluated visually by the extent to which the female worm mass was stained with MTT. Mean percent inhibition of formazan formation was calculated relative to the negative control worm masses after 7 days in culture.

[2] = test system: O. ochengi adult male; experiment: Onchocerca ochengi adult male worm motility assay; format: cell-based; conditions: 10 μM
Procedure: as §1

[3] = test system: L. loa microfilariae; experiment: L. loa microfilariae motility assay; format: cell-based; conditions: 10 μM
Procedure: O. ochengi microfilariae assays: were collected from the hides of infected cattle and washed prior to adding 10–15 microfilariae to 96-well culture plates containing confluent monkey kidney epithelial cells in 100 μL of media. Microfilariae were run in duplicate and plates were maintained at 37 °C in a 5% CO2 incubator. Microfilariae viability was visually scored using percent reduction of motility using the same scoring criteria used for adult males. Scores were recorded every 24 h after addition of drugs for 5 days using an inverted microscope.
L. loa microfilariae assays: L. loa microfilariae were purified from the blood of infected individuals using a step-wise Percoll gradient (46% and 43% Percoll) followed by centrifugation at 400 rcf for 20 min. The microfilariae were recovered in the 43% layer then assayed using the same culture conditions and method as the O. ochengi microfilariae.

[4] = test system: T. b. gambiense (ITMAP/1893); experiment: Anti-trypanosomal activity, T. b. gambiense trypomastigotes (resazurin); format: cell-based, Trypanosoma brucei gambiense; conditions: 72 h, read-out: T. b. gambiense IC50 (µM) ± SD
Procedure: Anti-trypanosomal activity: T. b. brucei Squib-427 strain (suramin-sensitive) and T. b. gambiense (ITMAP/1893) were cultured at 37 °C and 5% CO2 in HMI-9 medium supplemented with 10% FCS [90]. About 10^4 trypomastigotes/well were added to each well and parasite growth was assessed after 72 h at 37 °C by adding resazurin and reading at ex 550 nm, em 590 nm. Suramin was included as reference drug for T. b. brucei and pentamidine for T. b. gambiense.

[5] = test system: Leishmania donovani LV9 axenic amastigotes; experiment: L. donovani LV9 axenic amastigotes (resazurin); format: cell-based; conditions: read-out: Leishmania donovani LV9 Axenic Amastigotes IC50 (µM) ± SD
Procedure: In vitro anti-leishmanial evaluation was perfomed on both axenic and intramacrophage L. donovani amastigotes as previously described. […] Briefly, compounds were distributed in 96-well plates using 2-fold dilutions in 100 µL PYG medium. A. castellanii trophozoites were added to each well at 5 × 10^4 amoeba/mL in 200 µL final volume. L. donovani axenic amastigotes were added to each well at 10^6 parasites/mL in 200 µL final volume. After 72 h incubation at 27 °C, 20 µL of 1 mM resazurin was added to each well and further incubated at 27 °C for 8 h for A. castellanii and for 24 h for L. donovani axenic amastigotes. In living cells, resazurin is reduced in resorufin. This conversion is monitored by measuring the absorbance at specific wavelengths of resorufin (570 nm) and resazurin (600 nm) using a microplate reader (Labsystems Multiskan MS, McLean, VA, USA). In this assay, the activity was expressed in IC50. Miltefosine and pentamidine were used as reference drugs. All experiments were performed in three independent experiments.

[6] = test system: primary mouse macrophages (PMM); experiment: in vitro
Procedure: Toxicity in human fetal lung fibroblast (MRC-5) cell line and primary mouse macrophages (PMM) was assessed using a previously reported assay in 96-well microtiter plates. Tamoxifen and miltefosine were included as reference drugs (Table 10).
For MRC5SV2 or PMM cells, the assays were performed in 96-well microtiter plates, each well containing 10 µL of compound dilution and 190 µL of cell inoculum (3 × 10^4 cells/mL) as reported. Cell growth was compared to untreated controls (100% growth) and assay-media controls (0% growth). After three-day incubation, cell viability was assessed fluorometrically by adding resazurin [50 µL/well of a stock solution in phosphate buffer (50 µg/mL)], incubating for 4 h and measuring fluorescence (ex 550 nm, em 590 nm). The results are expressed as percentage reduction in cell growth as compared to untreated control wells. […] Tamoxifen was included as the reference drug.

[7] = test system: TBL3 cells (BL3 infected with T. annulata); experiment: Proliferation test on Theileria annulata-infected cells (TBL3); format: cell-based, bovine / Theileria annulata; conditions: 0.5 μM
Procedure: Theileria annulata culture: The TBL3 cell line was derived by in vitro infection of the spontaneous bovine B-lymphosarcoma cell line BL3 with the Hissar stock of T. annulata. B cell characteristics of the lines have been described. The cells are maintained at 37 °C under 5% CO2, in RPMI medium supplemented with 10% FCS, 25 mM Hepes, 4 mM L-glutamine, 100 μg/mL of streptomycin, 100 IU/mL of penicillin and […] 2-mercapthoethanol.
Cells were cultured in 12-well plates at an initial density of 200,000 cells per well in duplicate for each condition. […] The cells were cultured in 12-well plates at an initial density of 200,000 cells per well and drug was added every 24 h. To be able to compare the results, a drug-free control was also performed. Cell counting was done at 24, 72 and 96 h using the trypan blue method.

For `CC(=O)OCC1OC([S][Au][PH]2(c3ccccc3)C(c3ccccn3)=CC=C2c2ccccn2)C(OC(C)=O)C(OC(C)=O)C1OC(C)=O` [GoPI-sugar, 1-thio-β-D-glucopyranose 2,3,4,6-tetraacetato-S-Au{1-phenyl-2,5-di(2-pyridyl)phosphole}], the “% Inhibition of Motility O. ochengi Adult Female Day 7” value [1] was 51%, the “% Inhibition of Motility O. ochengi Adult Male Day 5” value [2] was 100% and the “% Inhibition of Motility L. loa mf w/MK2 Cells Day 5” value [3] was 38%. For the same compound, the IC50 [4] was 1.11 ± 0.12 µM, the IC50 [5] was 1.45 ± 0.07 µM and the CC50 [6] was 8 µM. The “time at which the antiproliferative effect occurred” value ([7]; TBL3 cells) was 24 h and the “number of TBL3 cells per well” value ([7]; first 24 h, initial density 200,000 cells per well) was 200,000 cells per well.
